Reference: publication PMC11336141
Bridge positions count the residues as written; N and C are the ends. Square brackets hold non-standard residues; d marks the D form. Peptide text beside a SMILES is read from it.

Legend:
[1] = Solubility in aqueous solutions (observation); conditions: comparison of des-glyco nG1, pG1 and venom fraction
isolated mouse islets = test: Glucagon secretion from isolated islets; assay type: cell-based, mouse (C57BL/6J); conditions: for Islet glucagon secretion: -9 log M peptide
Description: Female C57BL/6 J mice of 12–20 weeks were used for the islet secretion. Mice were killed by cervical dislocation and pancreatic islets were isolated as previously described. […] The islets were subsequently incubated with or without drugs in 10 mM glucose KRB for an hour. Supernatant from both incubations were collected. Total islet glucagon content was determined by acid-ethanol extraction. Both the supernatant and the acid-ethanol content were stored at −80 °C until further analysis. Glucagon in both supernatant and content were measured using U-plex metabolic 2-plex combo (mouse insulin and glucagon) kit (Meso Scale Diagnostic; catalog no: K15303K) according to manufacturer’s instruction.
Data analysis were performed in GraphPad Prism (v.9.4.1). Statistical analysis were performed using two-way repeated measure analysis of variance (ANOVA) with Šidák test for isolated islets glucagon secretion and one-way repeated measure ANOVA with Dunnett's test for rat pancreas perfusion experiments. Statistical significance was taken as p < 0.05.

Dr-sstr2b (GoA) = test: G protein dissociation assay, GoA at Dr-sstr2b; assay type: cell-based, zebrafish (Danio rerio)
Text: 3xHA-tagged human SSTR2 construct was obtained from cDNA.org (cDNA resource center, Bloomsburg PA, US). […] Kirill Martemyanov (University of Florida, US). Tango constructs for human SSTR1-5 were kind gifts from Prof. Bryan Roth (University of North Carolina, Chapel Hill, US) (Addgene kit # 1000000068). Tango constructs for fish Dr-sstr2a (sequence accession number: XP_005170178.1) and Dr-sstr2b (sequence accession number: XP_017210358.1) were custom-synthesized by Twist Biosciences using the Tango construct template as described in Kroeze et al., 2015[28]. 3xHA-tagged Dr-sstr2a and 3xHA tagged Dr-sstr2b constructs were inserted into pcDNA3.1 backbone. All DNA constructs were sequenced and confirmed prior to use.
Error bars represent means ± S.E.M. of n = 3 in technical duplicates.

human SSTR2 = human SSTR2 (Homo sapiens, UniProt P30874); test: Quantification of ligand bias (operational model), G proteins at hSSTR2; assay type: cell-based; design: Bryan Roth (Addgene) Addgene kit # 1000000068; host or cells: HTLA cells; conditions: for ∆log(tau/Ka): LogR(ligand) - LogR(SST-14); for LogR ± S.E.M.: log(τ/KA); for RE: relative efficacy; for ∆LogR ± S.E.M.: relative to SS-14; for G protein bias in words: ∆Log(τ/KA), SS-14 as reference
Chain of human SSTR2 (P30874 whole entry): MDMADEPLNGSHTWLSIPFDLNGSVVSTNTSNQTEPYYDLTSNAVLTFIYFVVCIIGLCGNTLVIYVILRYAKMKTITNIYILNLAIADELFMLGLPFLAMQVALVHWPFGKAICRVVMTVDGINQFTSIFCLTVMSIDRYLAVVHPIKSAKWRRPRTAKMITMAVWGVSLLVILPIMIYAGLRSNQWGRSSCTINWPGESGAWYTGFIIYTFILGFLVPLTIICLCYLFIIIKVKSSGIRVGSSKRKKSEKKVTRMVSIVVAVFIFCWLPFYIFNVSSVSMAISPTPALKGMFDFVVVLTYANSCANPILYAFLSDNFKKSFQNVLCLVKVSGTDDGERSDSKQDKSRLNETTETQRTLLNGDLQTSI
Text: Ligand bias were quantified using the method described in[35]. […] The operational model (2)[35] was used to determine the transduction ratios (τ/KA).2 E=Emin+(Emax−Emin)/1+(1+A/10^logKA)/10^logRA^n where E is the effect of the ligand, [A] is the concentration of test ligands, Emax is the maximal response of the system, Emin is the minimum response of the system, logKA is the logarithm of the equilibrium dissociation constant, n is the slope of the transducer function, log R is the logarithm of the transduction ratio (τ/KA).
Each experiment was analyzed using the operational model which all individual experiments were fitted with a global shared slope. The LogR (equivalent to log [τ] /KA) values were estimated by GraphPad Prism (v.9.4.1) and were used to calculate the relative efficacy (RE) using Eqs.

human SSTR2 (Gi3) = molecular target: T1, human SSTR2 (Gi3) (Homo sapiens, UniProt P30874); test: G protein activation (BRET dissociation) assay, Gi3 at hSSTR2; assay type: cell-based;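 as to Emax ± S.E.M.: percent of the maximal response to the reference somatostatin agonist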
T1 construct: host or cells: HEK293T cells
T1 sequence (P30874 whole entry): as above
Description: HEK293T cells were seeded onto 6-well plates at a density of 750,000 cells/well. […] 16 to 24 hours post-transfection, HEK293T cells were seeded onto white 96 well plate (PerkinElmer) coated with poly-L-lysine (PLL) at a density of 40,000 cells/well and were allowed to grow overnight. On the day of assay, cells were washed once with phosphate-based saline (PBS) and 80 µL of assay buffer which composed of PBS with 0.5 mM MgCl2 and 0.1% glucose, pH 7.4, were added onto each well. 10 µL of Nluc luciferase substrate furimazine (Promega) were added onto each well and incubated for 3 minutes.
The net BRET ratio was determined by subtracting the BRET ratio of drugs with the BRET ratio of vehicle control. Net BRET ratio over time was then plotted using GraphPad Prism (v.9.4.1), and the area-under-curve of net BRET ratio over time course for each ligand concentration tested were then determined and plotted against log(concentration) of drugs tested. […] Concentration response curves were fitted with a 4-parameter logistic Eq. (1) using GraphPad Prism (v.9.4.1):1 Y=Emin+(Emax−Emin)/1+10^logEC50−X×Hillslope

Compound: CC(C)C[C@H](N)C(=O)N[C@@H](Cc1ccccc1)C(=O)N[C@H]1CSSC[C@@H](C(=O)N[C@@H](Cc2c[nH]c3ccccc23)C(=O)O)NC(=O)[C@H](CO)NC(=O)[C@H](CCCCN)NC(=O)[C@@H](Cc2c[nH]c3ccccc23)NC(=O)[C@H](Cc2ccccc2)NC1=O [pG1] (H-LFCF[dW]KSCW-OH; disulfide 3-8)
- solubility in aqueous solutions in words [1]: did not observe any obvious differences in the solubility
- decrease of glucagon secretion (isolated mouse islets; 1 nM peptide, 1 mM glucose, 1 hour, p < 0.01, n = 9): ~ 33%
- effect on glucagon secretion in high glucose (isolated mouse islets; 1 nM peptide, 10 mM glucose): Neither SS-14 nor Consomatin pG1 affected glucagon secretion in high glucose conditions
- Islet glucagon secretion (isolated mouse islets; 1mM glucose, replicate 1): 0.1528
- Islet glucagon secretion (isolated mouse islets; 1mM glucose, replicate 2): 0.1799
- Islet glucagon secretion (isolated mouse islets; 1mM glucose, replicate 3): 0.229
- Islet glucagon secretion (isolated mouse islets; 1mM glucose, replicate 4): 0.1754
- Islet glucagon secretion (isolated mouse islets; 1mM glucose, replicate 5): 0.2817
- Islet glucagon secretion (isolated mouse islets; 1mM glucose, replicate 6): 0.2671
- Islet glucagon secretion (isolated mouse islets; 1mM glucose, replicate 7): 0.309
- Islet glucagon secretion (isolated mouse islets; 1mM glucose, replicate 8): 0.2377
- Islet glucagon secretion (isolated mouse islets; 1mM glucose, replicate 9): 0.1574
- Islet glucagon secretion (isolated mouse islets; 10mM glucose, replicate 1): 0.1057
- Islet glucagon secretion (isolated mouse islets; 10mM glucose, replicate 2): 0.1136
- Islet glucagon secretion (isolated mouse islets; 10mM glucose, replicate 3): 0.1366
- Islet glucagon secretion (isolated mouse islets; 10mM glucose, replicate 4): 0.1392
- Islet glucagon secretion (isolated mouse islets; 10mM glucose, replicate 5): 0.1398
- Islet glucagon secretion (isolated mouse islets; 10mM glucose, replicate 6): 0.1241
- Islet glucagon secretion (isolated mouse islets; 10mM glucose, replicate 7): 0.1488
- Islet glucagon secretion (isolated mouse islets; 10mM glucose, replicate 8): 0.2037
- Islet glucagon secretion (isolated mouse islets; 10mM glucose, replicate 9): 0.1689
- GoA dissociation at Dr-sstr2b in words (Dr-sstr2b (GoA); HEK293T cells): only induced GoA dissociation at the Dr-sstr2b but not the Dr-sstr2a
- Hill Slope (Dr-sstr2b (GoA); Table S5, GoA): 0.48 ± 0.10
- Span ± S.E.M. (Dr-sstr2b (GoA); Table S5, GoA): 100.43 ± 11.98
- Emax ± S.E.M. (Dr-sstr2b (GoA); Table S5, GoA, % of maximal response relative to SS-14): 105.52 ± 10.37%
- pEC50 ± S.E.M. (Dr-sstr2b (GoA); Table S5, GoA, HEK293T): 7.95 ± 0.19
- ∆log(tau/Ka) (human SSTR2; Gi1 (Gαi1)): -1.977
- LogR, Mean (human SSTR2; Gi1, N: SS-14 4, Octreotide 2, pG1 4): 7.421
- LogR (human SSTR2; Gi1, replicate 1 (row r6)): 7.197
- LogR (human SSTR2; Gi1, replicate 2 (row r7)): 7.651
- LogR (human SSTR2; Gi1, replicate 3 (row r8)): 7.8528
- LogR (human SSTR2; Gi1, replicate 4 (row r9)): 6.983
- ∆log(tau/Ka) (human SSTR2; Gi2 (Gαi2)): -1.482
- LogR, Mean (human SSTR2; Gi2, N: SS-14 5, Octreotide 3, pG1 5): 7.871
- LogR (human SSTR2; Gi2, replicate 1 (row r6)): 7.692
- LogR (human SSTR2; Gi2, replicate 2 (row r7)): 7.679
- LogR (human SSTR2; Gi2, replicate 3 (row r8)): 7.686
- LogR (human SSTR2; Gi2, replicate 4 (row r9)): 8.256
- LogR (human SSTR2; Gi2, replicate 5 (row r10)): 8.0434
- ∆log(tau/Ka) (human SSTR2; Gi3 (Gαi3)): -1.406
- LogR, Mean (human SSTR2; Gi3, N: SS-14 3, Octreotide 2, pG1 3): 8.305
- LogR (human SSTR2; Gi3, replicate 1 (row r6)): 7.832
- LogR (human SSTR2; Gi3, replicate 2 (row r7)): 8.615
- LogR (human SSTR2; Gi3, replicate 3 (row r8)): 8.468
- ∆log(tau/Ka) (human SSTR2; GoA (GαoA)): -1.083
- LogR, Mean (human SSTR2; GoA, N: SS-14 4, Octreotide 2, pG1 2): 8.753
- LogR (human SSTR2; GoA, replicate 1 (row r6)): 8.653
- LogR (human SSTR2; GoA, replicate 4 (row r9)): 8.853
- ∆log(tau/Ka) (human SSTR2; GoB (GαoB)): -1.118
- LogR, Mean (human SSTR2; GoB, N: SS-14 2, Octreotide 2, pG1 3): 8.505
- LogR (human SSTR2; GoB, replicate 1 (row r6)): 8.36
- LogR (human SSTR2; GoB, replicate 2 (row r7)): 8.764
- LogR (human SSTR2; GoB, replicate 3 (row r8)): 8.39
- LogR ± S.E.M. (human SSTR2; Gαi1): 7.42 ± 0.20
- RE (human SSTR2; Gαi1, 10^∆log(τ/KA)): 0.01
- ∆LogR ± S.E.M. (human SSTR2; Gαi1): -1.98 ± 0.27
- LogR ± S.E.M. (human SSTR2; Gαi2): 7.87 ± 0.12
- RE (human SSTR2; Gαi2): 0.033
- ∆LogR ± S.E.M. (human SSTR2; Gαi2): -1.48 ± 0.31
- LogR ± S.E.M. (human SSTR2; Gαi3): 8.30 ± 0.24
- RE (human SSTR2; Gαi3): 0.039
- ∆LogR ± S.E.M. (human SSTR2; Gαi3): -1.41 ± 0.26
- LogR ± S.E.M. (human SSTR2; GαoA): 8.75 ± 0.10
- RE (human SSTR2; GαoA): 0.082
- ∆LogR ± S.E.M. (human SSTR2; GαoA): -1.08 ± 0.13
- LogR ± S.E.M. (human SSTR2; GαoB): 8.50 ± 0.13
- RE (human SSTR2; GαoB): 0.076
- ∆LogR ± S.E.M. (human SSTR2; GαoB): -1.12 ± 0.14
- G protein bias in words (human SSTR2): does not bias towards Gi1 protein but preferentially couples to GoA and GoB protein
- G protein bias in words (human SSTR2; listed as Consomatin pG1): displays G protein bias towards Go subunits
- Emax (human SSTR2 (Gi3)): 75.2 ± 7.38%
- Hill Slope (human SSTR2 (Gi3); Table S2, Gαi3): 0.70 ± 0.18
- Span ± S.E.M. (human SSTR2 (Gi3); Table S2, Gαi3): 75.57 ± 8.97
